{"source": "paper PMC7767381", "about": "“Exploring the Anti-Cancer Mechanism of Novel 3,4′-Substituted Diaryl Guanidinium Derivatives” (Pharmaceuticals, 2020)", "note": "Entries after “also recorded” stand apart in the source; their conditions may differ.", "data": [{"tested_on": "ERK phosphorylation (MAPK/ERK pathway)", "experiment": "Western immunoblot of ERK phosphorylation in HL-60 extracts", "type": "cell-based, human", "conditions": "HL-60, 5 µM, 16 h", "procedure": "Thus, using Western immunoblot analysis of HL-60 extracts, we investigated the expression and phosphorylation levels of ERK (as an indication of ERK activation), which is the downstream effector of the Ras/BRAF signalling pathway (Figure 6).\nHL60s were seeded in T25 flasks at 50 × 10^4 cells/mL and cells were treated with either vehicle [0.5% EtOH (v/v)], 1–4, 9 or 52 (5 µM), as well as 1 (10 µM as reported). After 16 h, cells were collected and washed with PBS. Cell pellets were re-suspended in cold cell lysis buffer (radio-immunoprecipitation assay buffer) supplemented with 1% phosphatase inhibitor cocktail 2 and 3 (Sigma) and 10% protease inhibitor (Roche). Cells were lysed for 30 min on ice. Protein concentration was then determined by BCA assay. Lysates were boiled with Laemmli sample buffer [Tris-HCL 50 mM (pH 6.7), glycerol 10% (w/v), sodium dodecyl sulphate 2% (w/v), bromophenol blue 0.02% (w/v)] containing DTT […] for 10 min at 90 °C. Moreover, 20 µg of lysates were resolved by sodium dodecyl sulphate polyacrylamide gel electrophoresis (SDS-PAGE) and transferred onto PVDF transfer membrane (EMD Millipore). Membranes were blocked with 5% non-fat milk and probed with primary antibodies for ERK and phospho-ERK (Cell Signalling). Anti-GAPDH was used as a loading control (Calbiochem).\nFigure 6 Western immunoblot of HL-60 cell extracts following incubation with compounds 2, 3, 4, 9, 52 and 1 (as a control). HL60 cells were seeded at 2 × 10^5 cells/mL and were treated with either vehicle [0.5% EtOH (v/v)], compounds 52, 2, 9, 3 and 4 (5 µM) or compound 1 (5 and (*) 10 µM, as in reference) for 16 h. Cells were lysed and equal amounts of protein were loaded and separated on 15% SDS-PAGE gels, transferred to PVDF membrane and probed with antibodies against total and phosphorylated ERK. Anti-GAPDH was used as a loading control. Results are representative of 2 independent experiments.\nHL-60 cells were seeded in T25 flasks at 50 x10^4 cells/mL and treated with either vehicle [0.5% […]\nAfter 16 hours, cells were […]\ncollected and washed with PBS. Cell pellets were re-suspended in cold cell lysis buffer (radio-immunoprecipitation assay buffer) supplemented with 1% phosphatase inhibitor cocktail 2 and 3 (Sigma) and 10% protease inhibitor (Roche). Cells were lysed for 30 minutes on ice.\nProtein concentration was then determined by BCA assay. Lysates were boiled with laemmli sample buffer [Tris-HCL 50 mM (pH 6.7), glycerol 10% (w/v), sodium dodecyl sulphate 2% (w/v), bromophenol blue 0.02% (w/v)] containing DTT […] for 10 min. at 90 °C. Also 20 µg of lysates were resolved by sodium dodecyl sulphate polyacrylamide gel electrophoresis (SDS - PAGE) and transferred onto PVDF transfer membrane (EMD Millipore). Membranes were blocked with 5% non-fat milk and probed with primary antibodies for ERK and phospho-ERK (Cell Signaling). Anti-GAPDH was used as a loading control (Calbiochem).", "values": [{"smiles": "Cl.Cl.N=C(N)Nc1ccc(Oc2cccc(NC(=N)Nc3ccc(Cl)c(C(F)(F)F)c3)c2)cn1", "note": "[Compound 2, 1-(4-Chloro-3-(trifluoromethyl)phenyl)-3-(3-((6-guanidinopyridin-3-yl)oxy)phenyl) guanidine dihydrochloride]", "effect on ERK phosphorylation (Ras/BRAF pathway)": "inhibiting ERK phosphorylation; also recorded: abrogates ERK activation"}, {"smiles": "Cl.N=C(N)Nc1ccc(Oc2cccc(Nc3ccc(Cl)c(C(F)(F)F)c3)c2)cc1", "note": "[Compound 3, 1-(4-(3-((4-Chloro-3-(trifluoromethyl)phenyl)amino)phenoxy)phenyl)guanidine hydrochloride]", "effect on ERK phosphorylation (Ras/BRAF pathway)": "do not appear to interfere with the Ras/BRAF signalling pathway; also recorded: do not act in the same way"}, {"smiles": "Cl.N=C(N)Nc1ccc(Oc2cccc(Nc3ccc(Cl)c(C(F)(F)F)c3)c2)cn1", "note": "[Compound 4, 1-(5-(3-((4-Chloro-3-(trifluoromethyl)phenyl)amino)phenoxy)pyridin-2-yl)guanidine hydrochloride]", "effect on ERK phosphorylation (Ras/BRAF pathway)": "do not appear to interfere with the Ras/BRAF signalling pathway; also recorded: do not act in the same way"}]}]}
